Assay results taken from patent US20090062255A1, “TUMOR-TARGETING EVALUATION METHODOLOGY AND COMPOUNDS RELATED THERETO” (THALLION PHARMACEUTICALS INC., priority 2007, published 2009).
“And” between values parts separate entries of the source, which are not always exact repeats. Equal entries are not always repeated. Where two headings read alike, the source gives them in different places.

What was measured:
[1] = target: T1, peripheral benzodiazepine receptor (PBR) (Rattus norvegicus, UniProt P16257); assay: PBR radioligand binding assay ([3H]PK-11195, rat heart); conditions: for inhibition at 1 µM: 1 μM compound, 1% DMSO, read-out: Percentage of inhibition or binding activity, PBR (1 μM)
T1 construct: CBR and PBR were obtained from rat brain and heart membrane-fractions, respectively; from tissue; host or cells: Wistar rat heart membranes
Excerpt: (§1) The procedures used were based on known assays: ACAT (from rat; Ref: Largis et al (1989), J. Lipid. Res., vol 30, 681-689), COX-2 (human; Ref: Riendeau et al (1997), Can. J. Physiol. Pharmacol., vol 75, 1088-1095 and Warner et al (1999), Pro. Natl. Acad. Sci. USA, vol 96, 7563-7568), 5-LO (human; Ref: Carter et al (1991), J. Pharmacol. Exp. Ther., vol 256, no 3, 929-937, and Safayhi et al (2000), Planta Medica, vol 66, 110-113), PBR (from rat; Le Fur et al (1983), Life Sci. USA, vol 33, 449-457), CysLT1 (human; Martin et al (2001), Biochem. Pharmacol., vol 62, no 9, 1193-1200) and CBR (from rat; Damm et al (1978), Res. Comm. Chem. Pathol. Pharmacol., vol 22, 597-600 and Speth et al (1979), Life Sci., vol 24, 351-357).
(§2) Binding assays were done for each of Compounds 1-12 and 46 using ACAT, COX-2, 5-LO, PBR and CysLT1 enzymes. The procedures used are based on the respective references mentioned above and the conditions are summarized in Tables 16 (enzyme assays) and 17 (radioligand receptor assays).
(§3) Binding Assays were done at constant concentration of the compound, in 1% DMSO as vehicle, and are specified below each enzyme/receptor type in Table 18. The results are expressed in Table 18 as percentage inhibition. Significance was obtained when a result was ≧50% binding or inhibition (underlined).
As Compound 1 was isolated from structural prediction through genetic analysis and activity identified through in vitro cytotoxic assays, its molecular target(s) were unknown at the time of discovery. Based on the structural characteristics of ECO-4601, we first investigated its binding affinity to the central (GABAA; CBR;) and peripheral (PBR) benzodiazepine receptors. The effect of ECO-4601 on CBR (GABAA) and PBR was initially evaluated in a radioligand-binding assay at MDS Pharma Services (Taipei, Tawain). CBR and PBR were obtained from rat brain and heart membrane-fractions, respectively. Displacement assays were done in the presence of 1 nM [^3H]-Flunitrazepam (CBR; GABAA) or 0.3 nM of [^3H]-PK11195 (PBR). ECO-4601 was tested at 0.01, 0.1, 0.5, 1, 5 and 10 μM. Non-specific binding was estimated in the presence of 10 μM diazepam (CBR) or 100 μM dipyrimadole (PBR) and assays were performed according to previous described methods (Damm et al Res Commun Chem Pathol Pharmacol 22, pp 597-600; Le Fur et al (1983) Life Science 33, pp 449-57). […] This contrats with current specific PBR ligands, which bind the PBR with nanomolar affinity yet their effect on cell proliferation, is in the micromolar range.

[2] = tested on: HT-29 (colorectal carcinoma); assay: In vitro cytotoxic activity (GI50, propidium iodide), HT-29; type: cell-based; conditions: for GI50: Homo sapiens, HT-29, 96 h, method (1), 96 hours
Procedure: (§4) Procedures used for each series of tests are described below.
(§5) Compounds were dissolved at 10 mM in DMSO. […] The following day, propidium iodide was added to one of the two plates and fluorescence measured (Tz). […] Each compound was tested at each concentration and in triplicates. The equivalent cell number was determined after adding propidium iodide by measuring the signal by fluorescence (C for control).

[3] = for MTD: mouse, in vivo
[4] = target: T2, Leukotriene, Cysteinyl (CysLT1) receptor (Homo sapiens, UniProt Q9Y271); assay: CysLT1 radioligand binding assay; conditions: 4 μM compound, 1% DMSO; read-out: Percentage of inhibition or binding activity, CysLT1 (4 μM)
T2 construct: expressed in transfected cells; host or cells: CHO-K1 cells
T2 sequence (Q9Y271 1-337): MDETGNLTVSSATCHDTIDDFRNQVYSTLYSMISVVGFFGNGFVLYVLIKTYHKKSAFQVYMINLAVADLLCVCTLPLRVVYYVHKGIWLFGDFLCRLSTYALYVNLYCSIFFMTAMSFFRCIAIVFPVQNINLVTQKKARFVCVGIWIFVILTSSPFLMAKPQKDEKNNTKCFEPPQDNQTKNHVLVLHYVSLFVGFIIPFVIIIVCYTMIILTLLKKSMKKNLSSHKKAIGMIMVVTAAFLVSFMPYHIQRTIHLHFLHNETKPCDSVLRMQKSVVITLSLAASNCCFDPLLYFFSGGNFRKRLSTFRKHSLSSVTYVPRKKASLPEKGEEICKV
Excerpt: Leukotriene, Cysteinyl (CysLT1) is involved in inflammation and CysLT1-selective antagonists are used as treatment for bronchial asthma.
as §1, §2, §3

[5] = tested on: PC-3 (prostate adenocarcinoma); assay: In vitro cytotoxic activity (GI50, propidium iodide), PC-3; type: cell-based, human; conditions: Homo sapiens, 96 h, method (1)
Procedure: as §4, §5

SF268 (CNS) = assay: In vitro cytotoxic activity (GI50, propidium iodide), SF-268; type: cell-based; conditions: Homo sapiens, SF-268, 96 h, method (1), 96 hours
Procedure: as §4, §5

[6] = tested on: MDA-MB-231 (mammary gland adenocarcinoma); assay: In vitro cytotoxic activity (GI50, propidium iodide), MDA-MB-231; type: cell-based, human; conditions: Homo sapiens, MDA-MB-231, 96 h, method (1), 96 hours
Procedure: as §4, §5

[7] = tested on: DN oligodendroglioma cell line; assay: MTT cytotoxicity, DN cell line; type: cell-based; conditions: 96 h, Human
Procedure: The cytotoxic activity of Compound 1 was further evaluated using a panel of brain tumor cell lines. This study was performed in collaboration with INSERM (Grenoble, France). Tumor cells (5,000 to 10,000 cells per well depending on their doubling time) were plated in 96-well flat-bottom plates and incubated for 24 hours before treatment. Tumor cells were then incubated for 96 hours with seven different concentrations of Compound 1: […], 0.01, and 0.001 μM. The in vitro cytotoxic activity was determined by a standard MTT assay.

[8] = target: T1, peripheral benzodiazepine receptor (PBR); assay: In-house PBR binding assay ([3H]PK11195, rat heart mitochondrial membranes)
[9] = target: GABAA, the Central Benzodiazepine Receptor (CBR); assay: CBR radioligand binding assay ([3H]flunitrazepam, rat brain); conditions: 1 nM [3H]-Flunitrazepam
Excerpt: GABAA, the Central Benzodiazepine Receptor (CBenzR or CBR) is involved in anxiolitic activities.
as §1
Binding Assays were done at constant concentration of the compound, in 1% DMSO as vehicle, and are specified below each enzyme/receptor type in Table 18. The results are expressed in Table 18 as percentage inhibition. […]
As Compound 1 was isolated from structural prediction through genetic analysis and activity identified through in vitro cytotoxic assays, its molecular target(s) were unknown at the time of discovery. […] The effect of ECO-4601 on CBR (GABAA) and PBR was initially evaluated in a radioligand-binding assay at MDS Pharma Services (Taipei, Tawain). […]

Row | Compound | inhibition at 1 µM [1] [%] | inhibition at 4 µM [4] [%] | GI50 [5] [µM] | also measured
1 | CC(C)=CCC/C(C)=C/CC/C(C)=C/CN1C(=O)c2cccc(O)c2N(C)c2c(O)cc(O)cc21 [Compound 2, 10-farnesyl-4,6,8-trihydroxy-5-methyl-5,10-dihydro-dibenzo[b,e][1,4]diazepin-11-one] | 65 | 75 | – | increase of cytotoxic activity compared to parent Compound 1 ([2]; HT-29 cell line): fifty fold increase; weight losses ([3]; for several days post-injection): about 7%; MTD ([3]; ip): ≥ 50 mg/kg
2 | CC(=O)Oc1cc(O)c2c(c1)N(CC=C(C)CCC=C(C)CCC=C(C)C)C(=O)c1cccc(OC(C)=O)c1N2 [Compound 11, 4,8-diacetoxy-10-farnesyl-6-hydroxy-5,10-dihydro-dibenzo[b,e][1,4]diazepin-11-one] | 39 | 74 | 5.35 | GI50 [2]: 16 µM; GI50 (SF268 (CNS)): 5.79 µM; GI50 [6]: 7.72 µM
3 | CC(C)CCCC(C)CCCC(C)CCN1C(=O)c2cccc(O)c2Nc2c(O)cc(O)cc21 (stereo not drawn) [Compound 46, 10-(3,7,11-trimethyldodecyl)-4,6,8-trihydroxy-5,10-dihydro-dibenzo[b,e][1,4]diazepin-11-one] | -1 | 71 | 0.9 | –
4 | COc1cc(OC)c2c(c1)N(C/C=C(\C)CC/C=C(\C)CCC=C(C)C)C(=O)c1cccc(O)c1N2 [Compound 6, 10-farnesyl-4-hydroxy-6,8-dimethoxy-5,10-dihydro-dibenzo[b,e][1,4]diazepin-11-one] | 75 | 24 | – | –
5 | COc1cccc2c1Nc1c(O)cc(O)cc1N(C/C=C(\C)CC/C=C(\C)CCC=C(C)C)C2=O [Compound 4, 10-farnesyl-6,8-dihydroxy-4-methoxy-5,10-dihydro-dibenzo[b,e][1,4]diazepin-11-one] | 92 | 64 | – | –
6 | CC(=O)Oc1cccc2c1Nc1c(OC(C)=O)cc(O)cc1N(CC=C(C)CCC=C(C)CCC=C(C)C)C2=O [Compound 10, 4,6-diacetoxy-10-farnesyl-8-hydroxy-5,10-dihydro-dibenzo[b,e][1,4]diazepin-11-one] | 86 | 67 | 1.35 | GI50 [2]: 13 µM; GI50 (SF268 (CNS)): 2.02 µM; GI50 [6]: 1.55 µM
7 | COc1cc(O)cc2c1Nc1c(O)cccc1C(=O)N2C/C=C(\C)CC/C=C(\C)CCC=C(C)C [Compound 5, 10-farnesyl-4,8-dihydroxy-6-methoxy-5,10-dihydro-dibenzo[b,e][1,4]diazepin-11-one] | 68 | 72 | – | –
8 | CC(C)=CCC/C(C)=C/CC/C(C)=C/CN1C(=O)c2cccc(O)c2N(Cc2ccccc2)c2c(O)cc(O)cc21 [Compound 3, 5-benzyl-10-farnesyl-4,6,8-trihydroxy-5,10-dihydro-dibenzo[b,e][1,4]diazepin-11-one] | 11 | 59 | – | –
9 | COc1cccc2c1Nc1c(OC)cc(O)cc1N(CC=C(C)CCC=C(C)CCC=C(C)C)C2=O [Compound 7, 10-farnesyl-8-hydroxy-4,6-dimethoxy-5,10-dihydro-dibenzo[b,e][1,4]diazepin-11-one] | 65 | 15 | – | –
10 | CC(=O)Oc1cc(OC(C)=O)c2c(c1)N(CC=C(C)CCC=C(C)CCC=C(C)C)C(=O)c1cccc(O)c1N2 [Compound 9, 6,8-diacetoxy-10-farnesyl-4-hydroxy-5,10-dihydro-dibenzo[b,e][1,4]diazepin-11-one] | 32 | 70 | 1.44 | GI50 [2]: 12.6 µM; GI50 (SF268 (CNS)): 1.88 µM; GI50 [6]: 2.48 µM
11 | CC(C)=CCC/C(C)=C/CC/C(C)=C/CN1C(=O)c2cccc(O)c2Nc2c(O)cc(O)cc21 [Compound 1, 10-farnesyl-4,6,8-trihydroxy-5,10-dihydrodibenzo[b,e][1,4]diazepin-11-one] | 80 | 92 | – | IC50 ([1]; multiple dilutions, 0.3 nM [3H]-PK11195, rat heart, read-out: PBR IC50 (binding affinity)): 291 nM and ~300 nM; Ki ([1]; multiple dilutions, read-out: PBR inhibition constant (Ki)): 257 nM; IC50 [7]: 3000 ± 700 nM; MTD ([3]; iv): 150 mg/kg; EC50 [8]: 2800 nM; PBR binding (in words) [8]: bind the PBR; Ki ([8]; Ki=EC50/(1+[ligand]/Kd), [ligand]=1.6 nM, read-out: calculated Ki): ~1400 nM; IC50 ([8]; in-house radioligand-binding assay): 2700 nM; IC50 [9]: > 10000 nM
12 | CC(=O)Oc1cc(OC(C)=O)c2c(c1)N(CC=C(C)CCC=C(C)CCC=C(C)C)C(=O)c1cccc(OC(C)=O)c1N2 [Compound 12, 4,6,8-triacetoxy-10-farnesyl-5,10-dihydro-dibenzo[b,e][1,4]diazepin-11-one] | 39 | 33 | – | –
13 | COc1cc(OC)c2c(c1)N(CC=C(C)CCC=C(C)CCC=C(C)C)C(=O)c1cccc(OC)c1N2 [Compound 8, 10-farnesyl-4,6,8-trimethoxy-5,10-dihydro-dibenzo[b,e][1,4]diazepin-11-one] | 55 | 13 | – | –
